The results in this text go back to patent US8168592B2 (Amgen Inc., priority 2005, dated 2012).

What is called IC50 is the concentration at which inhibition is half-maximal. Broadly, the Ki is a measure of affinity in units of concentration, obtained from inhibition or displacement. A high value points to a looser hold on the target.

Square brackets hold non-standard residues; d marks the D form. Peptide text beside a SMILES is read from it. 1Nal = N[C@@H](Cc1cccc2ccccc12)C(=O)O; hArg = N=C(N)NCCCC[C@H](N)C(=O)O; Cit = NC(=O)NCCC[C@H](N)C(=O)O; Phg = N[C@H](C(=O)O)c1ccccc1

T2 sequence (Q16602 23-461): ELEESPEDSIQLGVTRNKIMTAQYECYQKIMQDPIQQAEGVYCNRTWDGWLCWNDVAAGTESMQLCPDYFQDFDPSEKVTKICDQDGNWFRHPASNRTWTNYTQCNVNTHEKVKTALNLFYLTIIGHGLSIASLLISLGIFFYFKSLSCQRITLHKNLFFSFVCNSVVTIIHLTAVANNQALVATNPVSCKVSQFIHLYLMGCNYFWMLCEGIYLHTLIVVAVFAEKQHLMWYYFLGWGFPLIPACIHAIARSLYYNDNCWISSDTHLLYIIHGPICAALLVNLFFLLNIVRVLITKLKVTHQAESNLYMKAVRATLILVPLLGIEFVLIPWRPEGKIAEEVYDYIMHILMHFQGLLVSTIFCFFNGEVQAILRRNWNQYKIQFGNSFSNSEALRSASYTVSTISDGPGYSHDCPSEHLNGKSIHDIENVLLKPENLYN
T2 sequence (O60894 27-148): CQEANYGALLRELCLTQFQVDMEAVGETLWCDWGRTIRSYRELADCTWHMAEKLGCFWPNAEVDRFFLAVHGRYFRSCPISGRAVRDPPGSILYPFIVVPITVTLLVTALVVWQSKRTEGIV

In one assay the target is T1, CGRP1 receptor (Homo sapiens, UniProt O60894+Q16602).
T1 construct: SK-N-MC cells express CRLR and RAMP1, which form CGRP1 receptor; endogenous in cells; host or cells: SK-N-MC human neuroblastoma cells
T1 sequence (Q16602 23-461): as the sequence (Q16602 23-461) above
T1 sequence (O60894 27-148): as the sequence (O60894 27-148) above
Put plainly: in vitro CGRP1 receptor mediated cAMP assay in SK-N-MC cells. Type of assay: cell-based. Particulars: Table 2A; read-out: IC50. In a few lines: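 Human SK-N-MC neuroblastoma cells, which endogenously express CRLR/RAMP1, were plated two days before assay and preincubated in plasma-free medium for 15 minutes at room temperature. Cells were then lysed for 30 minutes at 37° C, and cAMP in the lysates was quantified by competitive cAMP-AP chemiluminescent ELISA.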
(In general: cAMP levels reflect the balance of adenylyl cyclase and phosphodiesterase activity.)
Take `CC(=O)N[C@@H](Cc1c[nH]c2ccccc12)C(=O)N[C@H](C(=O)N[C@H](C(=O)N[C@@H](Cc1c[nH]cn1)C(=O)N[C@@H](CCCNC(N)=O)C(=O)N[C@@H](CC(C)C)C(=O)N[C@@H](C)C(=O)NCC(=O)N[C@@H](CC(C)C)C(=O)N[C@@H](CC(C)C)C(=O)N[C@@H](CO)C(=O)N[C@@H](CCCNC(N)=O)C(=O)N[C@@H](CO)C(=O)NCC(=O)NCC(=O)N[C@H](C(=O)N[C@H](C(=O)N[C@@H](CCCCNC(=N)N)C(=O)N[C@@H](CCCCN)C(=O)N[C@@H](CC(N)=O)C(=O)N[C@@H](Cc1ccccc1)C(=O)N[C@H](C(=O)N1CCC[C@H]1C(=O)N[C@H](C(=O)N[C@@H](CC(=O)O)C(=O)N[C@H](C(=O)NCC(=O)N1CCC[C@H]1C(=O)N[C@@H](Cc1cccc2ccccc12)C(=O)N[C@@H](C)C(=O)N[C@@H](Cc1ccccc1)C(N)=O)C(C)C)[C@@H](C)O)C(C)C)C(C)C)C(C)C)[C@@H](C)O)C(C)C` [compound 674] (Ac-WVTH[Cit]LAGLLS[Cit]SGGVV[hArg]KNFVPTDVGP[1Nal]AF-NH2): the concentration for half-maximal inhibition (IC50) was in the range of 1.31 to 1.51 nM.

Staying with this assay, now noted: Table 3; unconjugated CGRP peptide analogs; n = 2-4; read-out: IC50.
On to “Ac-WVTHRLAGLLSRSGGVVKNNFVPTDVGPFAF-NH2 [compound 5]”, for which the IC50 was determined as 0.14 nM.

Staying with this assay, now noted: Table 4; 20 k PEG-conjugated vs unconjugated peptides; n = 2-4; read-out: IC50.
Regarding “Ac-WVTHRLAGLLSRSGGVVKNNFVPTDVGPFAF-NH2 [compound 5]”, the half-maximal inhibitory concentration (IC50) stood at 0.14 nM.

Another assay concerns the target T2, CGRP1 receptor (human neuroblastoma cell (SK-N-MC) membrane) (Homo sapiens, UniProt O60894+Q16602).
T2 construct: human neuroblastoma cell (SK-N-MC) membrane suspension; purchased PerkinElmer; host or cells: SK-N-MC human neuroblastoma cell membranes (endogenous receptor)
Put plainly: CGRP1 binding assay (125I-hαCGRP displacement). The conditions noted are these: Table 3A. The procedure: CGRP1 binding experiments. […] The plates were incubated at room temperature for 2 hour with shaking at 60 rpm, then the contents of each well were filtered over 0.5% polyethyleneimine (PEI)-treated (at least one hour) GF/C 96-well filter plates. The GF/C filter plates were washed 6 times with ice-cold 50 mM Tris, pH 7.5 and dried in an oven at 55 C for 1 hour. The bottoms of the GF/C plates were then sealed, and 40 μl Microscint™ 20 was added to each well, then the tops of the GF/C plates were sealed with TopSeal™-A, a press-on adhesive sealing film, and the GF/C plates were counted with TopCount NXT (Packard). The data were analyzed by using ActivityBase (IDBS) or Prizm (GraphPad) software.
Take `CC(=O)N[C@@H](Cc1c[nH]c2ccccc12)C(=O)N[C@H](C(=O)N[C@H](C(=O)N[C@@H](Cc1cnc[nH]1)C(=O)N[C@@H](CCCNC(N)=O)C(=O)N[C@@H](CC(C)C)C(=O)N[C@@H](C)C(=O)NCC(=O)N[C@@H](CC(C)C)C(=O)N[C@@H](CC(C)C)C(=O)N[C@@H](CO)C(=O)N[C@@H](CCCNC(N)=O)C(=O)N[C@@H](CO)C(=O)NCC(=O)NCC(=O)N[C@H](C(=O)N[C@H](C(=O)N[C@@H](CCCCNC(=N)N)C(=O)N[C@@H](CCCCN)C(=O)N[C@@H](CC(N)=O)C(=O)N[C@@H](Cc1ccccc1)C(=O)N[C@H](C(=O)N1CCC[C@H]1C(=O)N[C@H](C(=O)N[C@@H](CC(=O)O)C(=O)N[C@H](C(=O)NCC(=O)N1CCC[C@H]1C(=O)N[C@@H](Cc1ccccc1)C(=O)N[C@@H](C)C(=O)N[C@@H](Cc1ccccc1)C(N)=O)C(C)C)[C@@H](C)O)C(C)C)C(C)C)C(C)C)[C@@H](C)O)C(C)C` [compound 739]: the Ki is 0.53 nM.

Turning to `CC(=O)N[C@@H](Cc1c[nH]c2ccccc12)C(=O)N[C@H](C(=O)N[C@H](C(=O)N[C@@H](Cc1c[nH]cn1)C(=O)N[C@@H](CCCNC(N)=O)C(=O)N[C@@H](CC(C)C)C(=O)N[C@@H](C)C(=O)NCC(=O)N[C@@H](CC(C)C)C(=O)N[C@@H](CC(C)C)C(=O)N[C@@H](CO)C(=O)N[C@@H](CCCNC(N)=O)C(=O)N[C@@H](CO)C(=O)NCC(=O)NCC(=O)N[C@H](C(=O)N[C@H](C(=O)N[C@@H](CCCCNC(=N)N)C(=O)N[C@@H](CCCCN)C(=O)N[C@@H](CC(N)=O)C(=O)N[C@@H](Cc1ccccc1)C(=O)N[C@H](C(=O)N1CCC[C@H]1C(=O)N[C@H](C(=O)N[C@@H](CC(=O)O)C(=O)N[C@H](C(=O)NCC(=O)N1CCC[C@H]1C(=O)N[C@@H](Cc1cccc2ccccc12)C(=O)N[C@@H](C)C(=O)N[C@@H](Cc1ccccc1)C(N)=O)C(C)C)[C@@H](C)O)C(C)C)C(C)C)C(C)C)[C@@H](C)O)C(C)C` [compound 674] (Ac-WVTH[Cit]LAGLLS[Cit]SGGVV[hArg]KNFVPTDVGP[1Nal]AF-NH2), the affinity corresponds to a Ki of 0.64 nM.

Staying with this assay, now noted: Table 3B.
For the compound `CC(=O)NCSC[C@H](NC(=O)[C@@H](NC(=O)[C@H](C)NC(=O)[C@@H](NC(=O)[C@H](CC(=O)O)NC(=O)[C@H](CO)NC(=O)[C@H](C)N)[C@@H](C)O)[C@@H](C)O)C(=O)N[C@H](C(=O)N[C@H](C(=O)N[C@@H](Cc1c[nH]cn1)C(=O)N[C@@H](CCCNC(=N)N)C(=O)N[C@@H](CC(C)C)C(=O)N[C@@H](C)C(=O)NCC(=O)N[C@@H](CC(C)C)C(=O)N[C@@H](CC(C)C)C(=O)N[C@@H](CO)C(=O)N[C@@H](CCCNC(=N)N)C(=O)N[C@@H](CO)C(=O)NCC(=O)NCC(=O)N[C@H](C(=O)N[C@H](C(=O)N[C@@H](CCCCN)C(=O)N[C@@H](CC(N)=O)C(=O)N[C@@H](CC(N)=O)C(=O)N[C@@H](Cc1ccccc1)C(=O)N[C@H](C(=O)N1CCC[C@H]1C(=O)N[C@H](C(=O)N[C@@H](CC(N)=O)C(=O)N[C@H](C(=O)NCC(=O)N[C@@H](CO)C(=O)N[C@@H](CCCCN)C(=O)N[C@@H](C)C(=O)N[C@@H](Cc1ccccc1)C(N)=O)C(C)C)[C@@H](C)O)C(C)C)C(C)C)C(C)C)[C@@H](C)O)C(C)C` [compound 707], the Ki was found to be 20.8 nM.

For the compound `CC(C)[C@H](NC(=O)[C@H](CC(=O)O)NC(=O)[C@@H](NC(=O)[C@@H]1CCCN1C(=O)[C@@H](NC(=O)[C@@H](N)Cc1ccccc1)C(C)C)[C@@H](C)O)C(=O)NCC(=O)N1CCC[C@@H]1C(=O)N[C@@H](Cc1ccccc1)C(=O)N[C@@H](C)C(=O)N[C@@H](Cc1ccccc1)C(N)=O` [compound 713], the inhibition constant (Ki) was > 1000 nM.

Consider `CC(C)C[C@H](NC(=O)CNC(=O)[C@H](C)NC(=O)[C@H](CC(C)C)NC(=O)[C@H](CCCNC(=N)N)NC(=O)[C@H](Cc1c[nH]cn1)NC(=O)[C@@H](NC(=O)[C@@H](NC(=O)[C@@H](N)Cc1cccc2ccccc12)C(C)C)[C@@H](C)O)C(=O)N[C@@H](CC(C)C)C(=O)N[C@@H](CO)C(=O)N[C@@H](CCCNC(=N)N)C(=O)N[C@@H](CO)C(=O)NCC(=O)NCC(=O)N[C@H](C(=O)N[C@H](C(=O)N[C@@H](CCCCN)C(=O)N[C@@H](CC(N)=O)C(=O)N[C@@H](CC(N)=O)C(=O)N[C@@H](Cc1ccccc1)C(=O)N[C@H](C(=O)N1CCC[C@H]1C(=O)N[C@H](C(=O)N[C@@H](CC(=O)O)C(=O)N[C@H](C(=O)NCC(=O)N1CCC[C@H]1C(=O)N[C@@H](Cc1ccccc1)C(=O)N[C@@H](C)C(=O)N[C@@H](Cc1ccccc1)C(N)=O)C(C)C)[C@@H](C)O)C(C)C)C(C)C)C(C)C` [compound 701] (H-[1Nal]VTHRLAGLLSRSGGVVKNNFVPTDVGPFAF-NH2), for which the inhibition constant Ki worked out at 0.14 nM.

In the case of `CC(C)[C@H](NC(=O)[C@H](CC(=O)O)NC(=O)[C@@H](NC(=O)[C@@H]1CCCN1C(=O)[C@@H](NC(=O)[C@@H](N)Cc1ccccc1)C(C)C)[C@@H](C)O)C(=O)NCC(=O)N1CCC[C@H]1C(=O)N[C@@H](Cc1ccccc1)C(=O)N[C@H](C)C(=O)N[C@@H](Cc1ccccc1)C(N)=O` [compound 715], the Ki is > 1000 nM.

In the case of `CC(C)[C@H](NC(=O)[C@@H](N)Cc1ccccc1)C(=O)N1CCC[C@H]1C(=O)N[C@H](C(=O)N[C@@H](CC(=O)O)C(=O)N[C@@H](C(=O)NCC(=O)N1CCC[C@H]1C(=O)N[C@@H](Cc1ccccc1)C(=O)N[C@@H](C)C(=O)N[C@@H](Cc1ccccc1)C(N)=O)C(C)C)[C@@H](C)O` [compound 711], the inhibitory constant (Ki) was > 1000 nM.

Turning to H-FVPTDVAPFAF-NH2 [compound 717], the Ki was > 1000 nM.

As for “686 (Ac-WVTHRLAGLLSRSGGVVK(20 kDa PEG)NNFVPTDVGPFAF-NH2) [compound 686]”, the inhibition constant Ki came out at 1.33 nM.

Compound “685 (Ac-WVTHRLAGLLSRSGGVVK(20 kDa PEG)NNFVPTDVGPFAF-NH2) [compound 685]” returned a Ki of 155 nM.

With “687 (Ac-WVTHRLAGLLSRSGGVVK(20 kDa PEG)NNFVPTDVGPFAF-NH2) [compound 687]”, affinity was put at a Ki of 0.49 nM.

“Ac-WVTHRLAGLLSRSGGVVKNNFVPTDVGPFAF-NH2 [compound 5]”: affinity was put at a Ki of 0.06 nM.

`CC(C)[C@H](NC(=O)[C@H](CC(=O)O)NC(=O)[C@@H](NC(=O)[C@@H]1CCCN1C(=O)[C@@H](NC(=O)[C@@H](N)Cc1ccccc1)C(C)C)[C@@H](C)O)C(=O)NCC(=O)N1CCC[C@H]1C(=O)N[C@H](Cc1ccccc1)C(=O)N[C@@H](C)C(=O)N[C@@H](Cc1ccccc1)C(N)=O` [compound 712]: the inhibitory constant (Ki) is > 1000 nM.

In turn, “Ac-WVTHRLAGLLSRSGGVVRCNFVPTDVGPFAF-NH2 [compound 680]” yielded an inhibition constant Ki of 0.58 nM.

In the case of `CC(C)C[C@H](NC(=O)CNC(=O)[C@H](C)NC(=O)[C@H](CC(C)C)NC(=O)[C@H](CCCNC(=N)N)NC(=O)[C@H](Cc1c[nH]cn1)NC(=O)[C@@H](NC(=O)[C@@H](NC(=O)[C@H](CO)NC(=O)[C@@H](NC(=O)[C@H](C)NC(=O)[C@@H](NC(=O)[C@H](CC(=O)O)NC(=O)[C@H](CO)NC(=O)[C@H](C)N)[C@@H](C)O)[C@@H](C)O)C(C)C)[C@@H](C)O)C(=O)N[C@@H](CC(C)C)C(=O)N[C@@H](CO)C(=O)N[C@@H](CCCNC(=N)N)C(=O)N[C@@H](CO)C(=O)NCC(=O)NCC(=O)N[C@H](C(=O)N[C@H](C(=O)N[C@@H](CCCCN)C(=O)N[C@@H](CC(N)=O)C(=O)N[C@@H](CC(N)=O)C(=O)N[C@@H](Cc1ccccc1)C(=O)N[C@H](C(=O)N1CCC[C@H]1C(=O)N[C@H](C(=O)N[C@@H](CC(N)=O)C(=O)N[C@H](C(=O)NCC(=O)N[C@@H](CO)C(=O)N[C@@H](CCCCN)C(=O)N[C@@H](C)C(=O)N[C@@H](Cc1ccccc1)C(N)=O)C(C)C)[C@@H](C)O)C(C)C)C(C)C)C(C)C` [compound 709], affinity was put at a Ki of 12 nM.

In the case of `CC(C)C[C@H](NC(=O)CNC(=O)[C@H](C)NC(=O)[C@H](CC(C)C)NC(=O)[C@H](CCCNC(=N)N)NC(=O)[C@H](Cc1c[nH]cn1)NC(=O)[C@@H](NC(=O)[C@@H](NC(=O)[C@@H](N)c1ccccc1)C(C)C)[C@@H](C)O)C(=O)N[C@@H](CC(C)C)C(=O)N[C@@H](CO)C(=O)N[C@@H](CCCNC(=N)N)C(=O)N[C@@H](CO)C(=O)NCC(=O)NCC(=O)N[C@H](C(=O)N[C@H](C(=O)N[C@@H](CCCCN)C(=O)N[C@@H](CC(N)=O)C(=O)N[C@@H](CC(N)=O)C(=O)N[C@@H](Cc1ccccc1)C(=O)N[C@H](C(=O)N1CCC[C@H]1C(=O)N[C@H](C(=O)N[C@@H](CC(=O)O)C(=O)N[C@H](C(=O)NCC(=O)N1CCC[C@H]1C(=O)N[C@@H](Cc1ccccc1)C(=O)N[C@@H](C)C(=O)N[C@@H](Cc1ccccc1)C(N)=O)C(C)C)[C@@H](C)O)C(C)C)C(C)C)C(C)C` [compound 703] (H-[Phg]VTHRLAGLLSRSGGVVKNNFVPTDVGPFAF-NH2), the Ki is 0.19 nM.
